Source: EP0308782A2, “Antimycotic preparations” (BAYER AG, priority 1987, dated 1989)
Values after ≈ are worked out from the molar mass of the structure shown.

How the values were obtained:
Trichophyton mentagr. = assay: Antimycotic in-vitro activity, serial dilution test (MIC); type: cell-based; conditions: Sabouraud's milieu d'epreuve, 28 °C to 37 °C, 96 h incubation, inoculum 5 x 10³ to 10⁴ germs/ml; for MIC: Trichophyton, read-out: MHK-Werte Trichophyton mentagr.
Description: (§1) Die in-vitro-Prüfungen wurden im Reihenverdünnungstest mit Keiminokula von durchschnittlich 5 x 10³ bis 10⁴ Keimen/ml Substrat durchgeführt. Als Nährmedium dienten • a) für Dermatophyten und Schimmelpilze: Sabouraud's milieu d'epreuve • b) für Hefen: Fleischextrakt-Traubenzucker-Bouillon.
(§2) Die Bebrütungstemperatur betrug 28 °C bis 37 °C, die Bebrütungsdauer lag bei 24 bis 96 Stunden bei Hefen und 96 Stunden bei Dermatophyten und Schimmelpilzen.

Candida albicans = assay: as above; type: cell-based; conditions: meat extract-glucose broth, 28 °C to 37 °C, 24 to 96 h incubation, inoculum 5 x 10³ to 10⁴ germs/ml; for MIC: Candida albicans, read-out: MHK-Werte Candida albicans
Description: as §1, §2

Torulopsis glabrata = assay: as above; type: cell-based; conditions: meat extract-glucose broth, 28 °C to 37 °C, 24 to 96 h incubation, inoculum 5 x 10³ to 10⁴ germs/ml; for MIC: Nakaseomyces glabratus, read-out: MHK-Werte Torulopsis glabrata
Description: as §1, §2

Aspergillus fumigatus = assay: as above; type: cell-based; conditions: Sabouraud's milieu d'epreuve, 28 °C to 37 °C, 96 h incubation, inoculum 5 x 10³ to 10⁴ germs/ml; for MIC: Aspergillus fumigatus, read-out: MHK-Werte Aspergillus fumigatus
Description: as §1, §2

Microsporum canis = assay: as above; type: cell-based; conditions: Sabouraud's milieu d'epreuve, 28 °C to 37 °C, 96 h incubation, inoculum 5 x 10³ to 10⁴ germs/ml; for MIC: Microsporum canis, 96 h, read-out: MHK-Werte Microsporum canis
Description: as §1, §2

[1] = test system: Dermatophyten, Schimmelpilze, Hefen; assay: Antimycotic in-vitro activity, serial dilution test, overall spectrum; type: cell-based; conditions: statement in words on the in-vitro serial dilution test
Description: as §1, §2

Candida-Zellen = assay: Antimycotic in-vivo activity (oral) in mouse candidosis; design: species or system Mäuse vom Typ SPF-CF₁; conditions: for Antimykotische in-vivo-Wirksamkeit (oral) bei Mäusecandidose: mice infected i.v. with 1 - 2 x 10⁶ Candida cells, 10 - 100 mg/kg oral 1 h before and 7 h after infection, survivors on day 6 p.i.; for antimykotische Wirkung: statement in words, mouse candidosis, oral 10 - 100 mg/kg
Description: Mäuse vom Typ SPF-CF₁ wurden intravenös mit 1 - 2 x 10⁶ logarithmisch wachsenden Candida-Zellen, die in physiologischer Kochsalzlösung suspendiert werden, infiziert. Eine Stunde vor und sieben Stunden nach der Infektion werden die Tiere mit jeweils 10 - 100 mg/kg Körpergewicht der Präparate oral behandelt.
Unbehandelte Tiere starben 3 bis 6 Tage post infektionem. Die Überlebensrate am 6.Tag post infektionem betrug bei unbehandelten Kontrolltieren etwa 5 %.

## OC(Cn1cncn1)(Cn1cncn1)c1ccccc1 [(A), reference compound]
Trichophyton mentagr.
  MIC: 64 µg/mL (≈ 237 µM)
Candida albicans
  MIC: 64 µg/mL (≈ 237 µM)
Torulopsis glabrata
  MIC: > 64 µg/mL
Aspergillus fumigatus
  MIC: > 64 µg/mL

## CC(C)(n1cncn1)C(O)(Cn1cncn1)c1ccc(Cl)cc1 (centres unmarked) [(B), reference compound]
Trichophyton mentagr.
  MIC: 8 µg/mL (≈ 24 µM)
Microsporum canis
  MIC: > 64 µg/mL
Candida albicans
  MIC: > 64 µg/mL
Torulopsis glabrata
  MIC: > 64 µg/mL
Aspergillus fumigatus
  MIC: > 64 µg/mL

## CC(C)(n1cccn1)C(O)(CCc1ccc(Cl)cc1)Cn1cncn1 (centres unmarked) [Beispiel 1, 5-(4-Chlorphenyl)-2-methyl-2-(pyrazol-1-yl)-3-(1,2,4-triazol-methyl)-pentan-3-ol]
[1]
  antimykotisches Wirkungsspektrum: gutes antimykotisches Wirkungsspektrum
Trichophyton mentagr.
  MHK-Werte Trichophyton mentagr.: <1 µg/ml Nährmedium
Microsporum canis
  MHK-Werte Microsporum canis: 2 µg/ml Nährmedium
Candida albicans
  MHK-Werte Candida albicans: 2 µg/ml Nährmedium
Torulopsis glabrata
  MHK-Werte Torulopsis glabrata: 2 µg/ml Nährmedium
Aspergillus fumigatus
  MHK-Werte Aspergillus fumigatus: 2 µg/ml Nährmedium

## CC(C)(Cn1cncn1)C(O)(CCc1ccc2ccccc2c1)Cn1cncn1 (centres unmarked) [Beispiel 2, 4,4-Dimethyl-1-(2-naphthyl)-5-(1,2,4-triazol-1-yl)-3-(1,2,4-triazol-1-yl-methyl)-3-pentanol]
[1]
  antimykotisches Wirkungsspektrum: gutes antimykotisches Wirkungsspektrum
Trichophyton mentagr.
  MIC: 4 µg/mL (≈ 10.2 µM)
Candida albicans
  MIC: 32 µg/mL (≈ 81.9 µM)
Torulopsis glabrata
  MIC: > 64 µg/mL
Aspergillus fumigatus
  MIC: > 64 µg/mL

## CC(C)(Cn1cncn1)C(O)(CCc1ccc(-c2ccccc2)cc1)Cn1cncn1 (centres unmarked) [Beispiel 5]
Candida-Zellen
  Antimykotische in-vivo-Wirksamkeit (oral) bei Mäusecandidose: +++ (Wirkung = 60 % Überlebende am 6.Tag.p.i.)
  antimykotische Wirkung: gute antimykotische Wirkung
[1]
  antimykotisches Wirkungsspektrum: gutes antimykotisches Wirkungsspektrum
Trichophyton mentagr.
  MIC: 2 µg/mL (≈ 4.8 µM)
Candida albicans
  MIC: 8 µg/mL (≈ 19.2 µM)
Torulopsis glabrata
  MIC: 32 µg/mL (≈ 76.8 µM)
Aspergillus fumigatus
  MIC: 8 µg/mL (≈ 19.2 µM)

## CC(C)(n1cccn1)C(O)(/C=C/c1ccc(Cl)cc1)Cn1cncn1 (centres unmarked) [Beispiel 7]
[1]
  antimykotisches Wirkungsspektrum: gutes antimykotisches Wirkungsspektrum
Trichophyton mentagr.
  MIC: < 1 µg/mL
Microsporum canis
  MIC: 4 µg/mL (≈ 11.2 µM)
Candida albicans
  MIC: < 1 µg/mL
Torulopsis glabrata
  MIC: 16 µg/mL (≈ 44.7 µM)
Aspergillus fumigatus
  MIC: 4 µg/mL (≈ 11.2 µM)

## CC(C)(n1cncn1)C(O)(C=Cc1ccc(Cl)cc1)Cn1cncn1 (centres unmarked) [Beispiel 8]
Candida-Zellen
  Antimykotische in-vivo-Wirksamkeit (oral) bei Mäusecandidose: ++++ (gute Wirkung = 80 % Überlebende am 6.Tag.p.i.)
  antimykotische Wirkung: gute antimykotische Wirkung

## CC(C)(n1cncn1)C(O)(CSc1ccc(Cl)cc1)Cn1cncn1 (centres unmarked) [Beispiel 9]
[1]
  antimykotisches Wirkungsspektrum: gutes antimykotisches Wirkungsspektrum
Trichophyton mentagr.
  MIC: 2 µg/mL (≈ 5.28 µM)
Candida albicans
  MIC: < 1 µg/mL
Torulopsis glabrata
  MIC: 32 µg/mL (≈ 84.5 µM)
Aspergillus fumigatus
  MIC: 64 µg/mL (≈ 169 µM)

## CC(C)(n1cncn1)C(O)(COc1ccc(Cl)cc1)Cn1cncn1 (centres unmarked) [Beispiel 10]
Candida-Zellen
  Antimykotische in-vivo-Wirksamkeit (oral) bei Mäusecandidose: +++++ (sehr gute Wirkung = 90 % Überlebende am 6.Tag.p.i.)
  antimykotische Wirkung: gute antimykotische Wirkung
[1]
  antimykotisches Wirkungsspektrum: gutes antimykotisches Wirkungsspektrum
Trichophyton mentagr.
  MIC: 8 µg/mL (≈ 22 µM)
Candida albicans
  MIC: 2 µg/mL (≈ 5.51 µM)
Torulopsis glabrata
  MIC: > 64 µg/mL
Aspergillus fumigatus
  MIC: > 64 µg/mL

## CC(C)(n1cncn1)C(O)(COc1ccc(Cl)cc1Cl)Cn1cncn1 (centres unmarked) [Beispiel 11]
[1]
  antimykotisches Wirkungsspektrum: gutes antimykotisches Wirkungsspektrum
Trichophyton mentagr.
  MIC: 2 µg/mL (≈ 5.03 µM)
Candida albicans
  MIC: 8 µg/mL (≈ 20.1 µM)
Torulopsis glabrata
  MIC: > 64 µg/mL
Aspergillus fumigatus
  MIC: > 64 µg/mL

## Cc1cc(Cl)ccc1OCC(O)(Cn1cncn1)C(C)(C)n1cncn1 (centres unmarked) [Beispiel 12]
[1]
  antimykotisches Wirkungsspektrum: gutes antimykotisches Wirkungsspektrum
Trichophyton mentagr.
  MIC: 4 µg/mL (≈ 10.6 µM)
Candida albicans
  MIC: 16 µg/mL (≈ 42.5 µM)
Torulopsis glabrata
  MIC: > 64 µg/mL
Aspergillus fumigatus
  MIC: > 64 µg/mL

## Cc1ccc(OCC(O)(Cn2cncn2)C(C)(C)n2cncn2)c(Cl)c1 (centres unmarked) [Beispiel 13]
[1]
  antimykotisches Wirkungsspektrum: gutes antimykotisches Wirkungsspektrum
Trichophyton mentagr.
  MIC: 2 µg/mL (≈ 5.31 µM)
Candida albicans
  MIC: 32 µg/mL (≈ 84.9 µM)
Torulopsis glabrata
  MIC: > 64 µg/mL
Aspergillus fumigatus
  MIC: > 64 µg/mL

## CC(C)(n1cccn1)C(O)(CCc1ccc(Cl)cc1)Cn1cncn1 (centres unmarked) [Beispiel 17]
Trichophyton mentagr.
  MIC: < 1 µg/mL
Microsporum canis
  MIC: 2 µg/mL (≈ 5.56 µM)
Candida albicans
  MHK-Werte Candida albicans: 16 µg/ml Nährmedium
Torulopsis glabrata
  MHK-Werte Torulopsis glabrata: 32 µg/ml Nährmedium
Aspergillus fumigatus
  MIC: 2 µg/mL (≈ 5.56 µM)

## CC(C)(n1cccn1)C(O)(CCc1ccc(Cl)cc1)Cn1cncn1 (centres unmarked) [Beispiel 18]
Trichophyton mentagr.
  MHK-Werte Trichophyton mentagr.: <1 µg/ml Nährmedium
Microsporum canis
  MHK-Werte Microsporum canis: 4 µg/ml Nährmedium
Candida albicans
  MHK-Werte Candida albicans: 8 µg/ml Nährmedium
Torulopsis glabrata
  MHK-Werte Torulopsis glabrata: 2 µg/ml Nährmedium
Aspergillus fumigatus
  MHK-Werte Aspergillus fumigatus: 2 µg/ml Nährmedium

## CC(C)(n1cccn1)C(O)(CCc1ccccc1F)Cn1cncn1 (centres unmarked) [Beispiel 19]
Trichophyton mentagr.
  MIC: 2 µg/mL (≈ 5.82 µM)
Candida albicans
  MIC: 16 µg/mL (≈ 46.6 µM)
Torulopsis glabrata
  MIC: 8 µg/mL (≈ 23.3 µM)
Aspergillus fumigatus
  MIC: 16 µg/mL (≈ 46.6 µM)

## CC(C)(n1cccn1)C(O)(CCc1ccc(OC(F)(F)F)cc1)Cn1cncn1 (centres unmarked) [Beispiel 20]
Trichophyton mentagr.
  MIC: < 1 µg/mL
Microsporum canis
  MIC: 2 µg/mL (≈ 4.89 µM)
Candida albicans
  MIC: 4 µg/mL (≈ 9.77 µM)
Torulopsis glabrata
  MIC: 4 µg/mL (≈ 9.77 µM)
Aspergillus fumigatus
  MIC: < 1 µg/mL

## Cc1cc(C)n(C(C)(C)C(O)(CCc2ccc(Cl)cc2)Cn2cncn2)n1 (centres unmarked) [Beispiel 21]
Trichophyton mentagr.
  MIC: < 1 µg/mL
Microsporum canis
  MIC: < 1 µg/mL
Candida albicans
  MIC: 8 µg/mL (≈ 20.6 µM)
Torulopsis glabrata
  MIC: 16 µg/mL (≈ 41.2 µM)
Aspergillus fumigatus
  MIC: 2 µg/mL (≈ 5.16 µM)

## CC(C)(n1cccn1)C(O)(CCc1ccc(F)cc1F)Cn1cncn1 (centres unmarked) [Beispiel 22]
Trichophyton mentagr.
  MIC: 2 µg/mL (≈ 5.53 µM)
Candida albicans
  MIC: 2 µg/mL (≈ 5.53 µM)
Torulopsis glabrata
  MIC: 8 µg/mL (≈ 22.1 µM)
Aspergillus fumigatus
  MIC: 16 µg/mL (≈ 44.3 µM)

## CC(C)(n1cccn1)C(O)(CCc1ccc(Cl)cc1Cl)Cn1cncn1 (centres unmarked) [Beispiel 23]
Trichophyton mentagr.
  MIC: 2 µg/mL (≈ 5.07 µM)
Candida albicans
  MIC: 8 µg/mL (≈ 20.3 µM)
Torulopsis glabrata
  MIC: 2 µg/mL (≈ 5.07 µM)
Aspergillus fumigatus
  MIC: 8 µg/mL (≈ 20.3 µM)

## CC(C)(n1cccn1)C(O)(CCc1ccc(F)cc1)Cn1cncn1 (centres unmarked) [Beispiel 24]
Trichophyton mentagr.
  MIC: < 1 µg/mL
Microsporum canis
  MIC: 4 µg/mL (≈ 11.6 µM)
Candida albicans
  MIC: < 1 µg/mL
Torulopsis glabrata
  MIC: 4 µg/mL (≈ 11.6 µM)
Aspergillus fumigatus
  MIC: 8 µg/mL (≈ 23.3 µM)

## Cc1cc(C)n(C(C)(C)C(O)(CCc2ccc(F)cc2)Cn2cncn2)n1 (centres unmarked) [Beispiel 25]
Trichophyton mentagr.
  MIC: 2 µg/mL (≈ 5.38 µM)
Candida albicans
  MIC: 16 µg/mL (≈ 43.1 µM)
Torulopsis glabrata
  MIC: > 64 µg/mL
Aspergillus fumigatus
  MIC: 4 µg/mL (≈ 10.8 µM)

## CC(C)(n1cccn1)C(O)(CCc1ccc(Cl)cc1F)Cn1cncn1 (centres unmarked) [Beispiel 26]
Trichophyton mentagr.
  MIC: < 1 µg/mL
Microsporum canis
  MIC: 2 µg/mL (≈ 5.29 µM)
Candida albicans
  MIC: 8 µg/mL (≈ 21.2 µM)
Torulopsis glabrata
  MIC: 32 µg/mL (≈ 84.7 µM)
Aspergillus fumigatus
  MIC: 2 µg/mL (≈ 5.29 µM)

## CC(C)(n1cccn1)C(O)(CCc1ccc(F)cc1Cl)Cn1cncn1 (centres unmarked) [Beispiel 27]
Trichophyton mentagr.
  MIC: 4 µg/mL (≈ 10.6 µM)
Candida albicans
  MIC: 8 µg/mL (≈ 21.2 µM)
Torulopsis glabrata
  MIC: 16 µg/mL (≈ 42.3 µM)
Aspergillus fumigatus
  MIC: 32 µg/mL (≈ 84.7 µM)

## CC(C)(n1cccn1)C(O)(COc1ccc(Cl)cc1)Cn1cncn1 (centres unmarked) [Beispiel 28]
Trichophyton mentagr.
  MIC: < 1 µg/mL
Microsporum canis
  MIC: 8 µg/mL (≈ 22.1 µM)
Candida albicans
  MIC: 32 µg/mL (≈ 88.4 µM)
Torulopsis glabrata
  MIC: 16 µg/mL (≈ 44.2 µM)
Aspergillus fumigatus
  MIC: 16 µg/mL (≈ 44.2 µM)

## CC(C)(n1cncn1)C(O)(CCc1ccc(Cl)cc1)Cn1cncn1 (centres unmarked) [Beispiel 29]
Trichophyton mentagr.
  MIC: < 1 µg/mL
Microsporum canis
  MIC: 4 µg/mL (≈ 11.1 µM)
Candida albicans
  MIC: < 1 µg/mL
Torulopsis glabrata
  MIC: 32 µg/mL (≈ 88.7 µM)
Aspergillus fumigatus
  MIC: 16 µg/mL (≈ 44.3 µM)
